Measurements as given in patent EP2601945A1 (Thomale, Jürgen, priority 2011, dated 2013).

Test system: Pt-GG adducts in DNA
Assay: In vivo screening for cis-platin uptake inhibitors and DPH co-administration, ICA of Pt-GG adducts
Set-up: species or system mice
Conditions: 24 h; for inhibition of DNA platination in the three target cell types: independent of dosing (quinine 100 or 50 mg/kg, butylscopolamine 20 or 10 mg/kg) i.p. 1 h before cis-platin 10 mg/kg
Description: The sacrificed animals were immediately dissected. Kidneys and lungs were submerged in embedding medium (Tissue-Tek O.C.T. Compound) and frozen in liquid nitrogen. Cochleae were dissected and fixed by intralabyrinthine perfusion with Carnoy's solution (3 hours; for DNA adduct staining) or with formaldehyde (4 % in PBS; 1 hour; for OCT protein staining). Cochleae were decalcified in EDTA solution (10 % w/v in PBS) for 3 days and then placed in sucrose solutions (5 % in PBS for 12 hours and 15 % in PBS for 5 hours). After that samples were imbedded in Tissue-Tek medium, frozen and cryosections of 10 µm cut.
Frozen tissue sections of the inner ear or kidneys on ImmunoSelect slides were fixed in methanol at -20°C for at least 2 hours or overnight and then rehydrated for 10 minutes in PBS, at room temperature. To provide better antibody penetration in the tissue structures the samples underwent alkaline permeabilisation of cytoplasmic and nuclear membranes for 5 minutes at 0°C, followed by washing in PBS at room temperature for 5 minutes. The proteolytic cleavage of cytoplasmic and nuclear proteins was performed in two steps. At first, a pre-warmed pepsin solution (60 µg /ml for cell culture or 100 µg/ml for tissue sections in PBS/HCl) was applied onto the tissue sections and incubated for 10 minutes at 37°C in a humidified chamber. The incubation with pepsin was followed by washing in PBS for 10 minutes at room temperature. In a second step tissue sections were incubated with pre-warmed proteinase K solution (40 µg/ml for cell cultures or 50-100 µg /ml for tissue sections in proteinase K buffer) for 10 minutes at 37°C in a humidified chamber. Subsequently the sections were washed in 0.2 % glycine in PBS for 10 minutes at room temperature. Non-specific binding of the antibodies was inhibited by incubation with a blocking solution of 1 % casein in PBS for 30 minutes at room temperature. The samples were then incubated with a monoclonal antibody (R-C18, Liedert et al., 2006) specific for Pt-GG adducts in DNA (0.1 µg/ml in 0.1 % BSA/PBS) over night at 4°C in the humidified chamber. Subsequently, the slides were washed in 0.05 % Tween 20 in PBS for 5 minutes at room temperature and then in PBS for 5 minutes. The incubation with secondary Cy3-labeled rabbit anti-(rat Ig) antibodies, was performed (0.2 µg/ml in 0.1 % BSA/PBS) for 60 minutes at 37°C in the humidified chamber, followed by washing in 0.05 % Tween 20 in PBS for 5 minutes at room temperature and then in PBS for 5 minutes. The nuclear DNA was counterstained with DAPI (1 µg/ml in PBS) for 30 minutes at room temperature. The slides were then washed in PBS. Finally, the samples were embedded with a densification compound "[…]". The quantification of immuno- and DNA-fluorescence was performed by means of a microscope-coupled digital image analysis system ACAS 6.0 Cytometry Analysis System. Adduct levels in the nuclear DNA of individual cells were calculated by normalizing antibody-derived fluorescence signals to the corresponding DNA content of the same nucleus, and were expressed as arbitrary fluorescence units (AFUs). Data were assigned to specific cell types as determined by histochemistry.
The mice were separated into two groups for pretreatment with low or high doses of the test compounds. […] The low dose group received half the dose of the high dose group (50, 50, 30 or 10 mg/kg, respectively). […] Cochleae and kidneys were dissected for immunostaining and ICA analyses of Pt-GG adduct levels in specific cell types (Figure 8). In tissue sections from mice pretreated with quinine or butylscopolamine no inhibition of DNA platination was observed, independent of the dosing, in either of the three target cell types (renal tubulus epithelium cells (Figure 8 A), cochlear marginal cells (Figure 8B) and outer hair cells (Figure 8 C)). […]

Row | SMILES | inhibition of DNA platination in the three target cell types | reduction of adduct levels in all three target cell types (high dose (ranitidine 100 mg/kg) i.p. 1 h before cis-platin 10 mg/kg, renal tubulus epithelium, cochlear marginal and outer hair cells)
1 | CCCC[N+]1(C)[C@@H]2C[C@@H](OC(=O)[C@H](CO)c3ccccc3)C[C@H]1[C@@H]1O[C@@H]12 (stereo partly drawn) [butylscopolamine] | no inhibition | –
2 | C=C[C@H]1C[N@@]2CC[C@H]1C[C@H]2[C@H](O)c1ccnc2ccc(OC)cc12 [quinine] | no inhibition | –
3 | CNC(=C[N+](=O)[O-])NCCSCc1ccc(CN(C)C)o1 [ranitidine] | – | 15 - 20%
